Data: paper PMC12830207, “Targeting the protein–protein interaction between the CDC37 cochaperone and client kinases by an allosteric RAF dimer breaker” (The Journal of Biological Chemistry, 2025)

Key:
HCT116 cells = assay: WST-1 cell viability assay, HCT116; type: cell-based; details: HCT116, no braftide, 24 h, WST-1; read-out: EC50 of 17-AAG alone, HCT116
Description: HCT116 and WM3629 cells were seeded onto polylysine-coated, clear-bottomed, 96-well plates at 15(10)^3 cells per well and allowed to incubate for 24 h. Cells were treated with braftide and 17-AAG mixtures at indicated concentrations for 24 h (37 °C). The WST-1 cell viability assay was carried out according to the manufacturer's protocols (Roche; 11644807001) for 4 h, and absorbance readings were taken at 450 nM in a CLARIOstar plate reader. For the dose–response curves of braftide and 17-AAG, the data were fit to the 4-parameter logistic equation (dose–response fitting equation) in GraphPad Prism (Dotmatics): y=A1+(A2−A1)÷(1+10^(LOGx0−x)p)
Error bars are indicative of the SEM of each point.

[1] = system: MAPK proteins (BRAF, CRAF, MEK, pMEK, ERK, pERK); assay: Immunoblot of MAPK proteins in HCT116 cells; type: cell-based
Description: (§1) Western blot band densities were quantified with ImageJ software (National Institutes of Health) and normalized to the indicated loading control. Statistical significance was determined through one-/two-way ANOVA, where indicated, followed by Tukey's honest significant difference post hoc test with corresponding p values (∗p < 0.05, ∗∗p < 0.002, ∗∗∗p < 0.0002, and ∗∗∗∗p < 0.0001). All graph bars represent the mean ± SD with individual data points per biological replicate with corresponding p values.

HSP90 [2] = details: cited from earlier work
From the text: However, this approach often requires high dosages, making cells more susceptible to thermal damage and inducing HSR1 expression ([10]). […] ATP competitive inhibitors for RAF kinase encou ...

BRAF–CDC37 interaction = assay: NanoBiT luminescence CDC37–RAF interaction reporter assay, BRAF^SmBiT–CDC37^LgBiT; type: cell-based, human (HEK293); details: HEK293, 10 µM vemurafenib, 4 hrs, Fig. S8
From the text: NanoBiT cytomegalovirus MCS BiBiT vector, which contains a BRAF N terminal fused with LgBiT and CRAF N terminal fused with SmBiT, was purchased from Promega. CDC37 LgBiT and CRAF SmBiT was generated using the standard Gibson Assembly (NEB HiFi Assembly) using NanoBiT BiBiT as the vector and following primers: 5′ […] 3′, 5′ […] 3′, 5′ […] 3′, 5′ […] 3′, and CDC37 LgBiT and BRAF SmBiT was generated using the standard Gibson Assembly using NanoBiT BiBiT as the vector and following primers: 5′ […] 3′, 5′ […] 3′, 5′ […] 3′, 5′ […] 3′. Primers were designed to introduce H20A, N22A, I23A triple mutation within the CDC37 FLAG tag and for NanoBiT construct CDC37(HNI/A) LgBit and BRAF SmBiT. Primers were designed to introduce the desired substitutions. The forward primer sequence was 5′ gccgcc[…] 3′, and the reverse primer sequence was 5′ gggggc[…] 3′. Site-directed mutagenesis was carried out using the Q5 Site-Directed Mutagenesis Kit (NEB; E0554) following the manufacturer's protocol.
Twenty-four hours post-transfection, cells were trypsinized, pelleted, resuspended in OptiMEM + 4% fetal bovine serum, and reseeded onto a 96-well plate at 5(10)^4 cells per well and then incubated at 37 °C overnight. Cells were pretreated with 1 μM bortezomib for 5 h and then braftide for 4 h at 0 and 25 μM. After treatment, 10 μM furimazine substrate was added to each well, and luminescence readings were taken at 470 to 480 nm using a CLARIOstar plate reader. Statistical significance was determined through a paired t test where indicated, followed by Tukey's honest significant difference post hoc test with corresponding p values (∗p < 0.05, ∗∗p < 0.01, and ∗∗∗p < 0.001). All graph bars represent the mean ± SD with individual data points per biological replicate with corresponding p values.

ERK = details: cited from earlier work
From the text: The RAF kinase family, comprising ARAF, BRAF, and CRAF, is one of the well-studied clients of CDC37. RAF kinase is a core component of the mitogen-activated protein kinase (MAPK) (RAS–RAF–mitogen-activated protein kinase kinase [MEK]–extracellular signal–regulated kinase [ERK]) pathway, governing cell proliferation, survival, senescence, differentiation, and migration ([18]). […] While ATP-competitive inhibitors like vemurafenib, dabrafenib, and encorafenib ...

HSP90–CDC37 complex = details: cited from earlier work
From the text: Unlike conventional HSP90 inhibitors, braftide preserves HSP90 activity while disrupting CDC37–client interactions, minimizing cytotoxicity and enhancing therapeutic precision. Braftide's ability to destabilize RAF through CDC37 inhibition may offer an alternative to high-dose HSP90 inhibitors, mitigating their associated side effects. […] While most HSP90–CDC37 inhibitors focus on HSP90 ATP-competitive inhibition ([6]), emerging ...

HSP90 [3] = assay: Photo-crosslinking and streptavidin pull-down, HSP90; type: binding, human (HEK293); details: 10 μM peptide, HEK293 lysate, 4 h, 4 °C, UV 1 h, streptavidin
Description: (§2) Transfected HEK293 cells were treated with the indicated treatments and harvested in cold PBS. The cell pellets were lysed in modified RIPA buffer (50 mM Hepes [pH 7.4], 150 mM sodium chloride, 0.1% NP-40 [IGEPAL630], 1 mM EDTA, 5% glycerol, 1 mM PMSF, 20 mM β-glycerophosphate, 2.5 mM sodium pyrophosphate, and 1 protease inhibitor tablet) and incubated with rotation for 2 h, 4 °C. Cell lysates were then incubated with resin (FLAG-M2 magnetic, Sigma [M8823] or streptavidin, Pierce [88816]) for 2 h to bind the tagged BRAF–CRAF or BTN–braftide-crosslinked proteins. The samples were washed five times in a modified RIPA buffer and quenched in loading dye (BTN IP elution was supplemented with 20 mM biotin in loading dye) and heated at 95 °C, 5 min. Samples were analyzed via immunoblot.
(§3) HEK293 cells were cotransfected with CDC37 (FLAG-tagged) and BRAF (V5-tagged). Cells were harvested in cold PBS, and pellets were lysed in modified RIPA buffer with rotation for 2 h, 4 °C. Cell lysate (1 mg) was incubated with 0 or 10 μM BTN–braftide/JAK2, with rotation for 4 h, at 4 °C. Samples were then exposed to […] UV light for 1 h over ice. After UV treatment, samples were incubated with Pierce Streptavidin magnetic beads (catalog no.: 88816) for 17 h at 4 °C, to bind BTN–braftide. […] Samples were analyzed via immunoblot.

CDC37 = assay: Photo-crosslinking and streptavidin pull-down, CDC37; type: binding, human (HEK293); details: 10 μM peptide, lysate of HEK293 with CDC37-FLAG/BRAF-V5, 4 h, 4 °C, UV 1 h, streptavidin
Description: as §2, §3

BRAF = assay: Photo-crosslinking and streptavidin pull-down, BRAF; type: binding, human (HEK293); details: 10 μM peptide, lysate of HEK293 with CDC37-FLAG/BRAF-V5, 4 h, 4 °C, UV 1 h, streptavidin
Description: as §2, §3

MAPK proteins / pERK = assay: Immunoblot of protein degradation and pERK with control peptide in HEK293; type: cell-based, human (HEK293); details: HEK293 cotransfected with CDC37 and RAF (Fig. S2A)
Description: as §1

AKT1 = assay: Photo-crosslinking and streptavidin pull-down, AKT1; type: binding, human (HEK293); details: 10 μM peptide, HEK293 lysate, 4 h, 4 °C, UV 1 h, streptavidin
Description: as §2, §3

CRAF = assay: Photo-crosslinking and streptavidin pull-down, endogenous CRAF; type: binding, human (HEK293); details: 10 μM peptide, HEK293 lysate, 4 h, 4 °C, UV 1 h, streptavidin
Description: as §2, §3

[4] = biological target: HSP90 (endogenous, HEK293), P07900; assay: co-immunoprecipitation (IP: FLAG), immunoblot band quantification; details: chain shown with the change, representative blot

Q: Which results are given for `C=CCNC1=C2C[C@@H](C)C[C@H](OC)[C@H](O)[C@@H](C)/C=C(\C)[C@H](OC(N)=O)[C@@H](OC)/C=C\C=C(/C)C(=O)NC(=CC1=O)C2=O` [17-AAG, 17-N-allylamino-17-demethoxygeldanamycin, reference compound]?
A: EC50 (HCT116 cells): > 5 µM; CRAF degradation and MAPK signaling, combination ([1]; HCT116, 500 nM 17-AAG + 500 nM braftide, immunoblot, n = 3): significant degradation of CRAF kinase and downregulation of MAPK signaling; inhibition by monotherapy at 500 nM ([1]; HCT116, 500 nM single agent, immunoblot): Neither 17-AAG nor braftide monotherapy exhibited obvious inhibition; concentration at which CRAF kinase level is depleted, 17-AAG monotherapy ([1]; HCT116, 17-AAG alone, 16 h, immunoblot): 2 µM; cytotoxicity in clinical trials (HSP90 [2]): its clinical trials faced challenges because of high cytotoxicity

Q: With `CCCS(=O)(=O)Nc1ccc(F)c(C(=O)c2c[nH]c3ncc(-c4ccc(Cl)cc4)cc23)c1F` [Vemurafenib, reference compound] as the molecule, how does the “NanoBiT BRAF–CDC37 interaction, vemurafenib” value (BRAF–CDC37 interaction) read?
A: Its value is “disrupted the interaction between BRAF and CDC37 in the NanoBiT assay”.

Q: And the “paradoxical activation of downstream ERK” value (ERK)?
A: Its value is “can lead to paradoxical activation of downstream ERK under certain conditions”.

Q: For `CC1=C[C@H](C)C[C@H](C)[C@H](Cc2cnco2)OC(=O)/C(C)=C\[C@H](C)C[C@H](C)[C@H](Cc2cnco2)OC1=O` [conglobatin A], which “dissociation of HSP90–CDC37 complex” value (HSP90–CDC37 complex) is on record?
A: Its value is “allosterically dissociate the HSP90–CDC37 complex”.

Q: Which “paradoxical activation of downstream ERK” value (ERK) does the source give for `CC(C)(C)c1nc(-c2cccc(NS(=O)(=O)c3c(F)cccc3F)c2F)c(-c2ccnc(N)n2)s1` [dabrafenib] here?
A: Its value is “can lead to paradoxical activation of downstream ERK under certain conditions”.

Q: Which “paradoxical activation of downstream ERK” value (ERK) does the source give for `COC(=O)N[C@@H](C)CNc1nccc(-c2cn(C(C)C)nc2-c2cc(Cl)cc(NS(C)(=O)=O)c2F)n1` [encorafenib] here?
A: The value was “can lead to paradoxical activation of downstream ERK under certain conditions”.

Q: With `C[C@@H]1O[C@@H](O[C@H]2[C@H](OC(=O)[C@]34CCC(C)(C)C[C@H]3C3=CC[C@@H]5[C@@]6(C)C[C@H](O)[C@H](O[C@@H]7O[C@H](CO)[C@@H](O)[C@H](O)[C@H]7O)C(CO)(CO)[C@@H]6CC[C@@]5(C)[C@]3(C)C[C@H]4O)OC[C@H](O)[C@@H]2O)[C@H](O)[C@H](O)[C@H]1O[C@@H]1OC[C@@H](O)[C@H](O[C@@H]2OC[C@](O)(CO)[C@H]2O)[C@H]1O` [platycodin D] as the molecule, how does the “dissociation of HSP90–CDC37 complex” value (HSP90–CDC37 complex) read?
A: Its value is “allosterically dissociate the HSP90–CDC37 complex”.

Q: With “Biotin-GRKKRRQRRRPQ-miniPEG-SxQHDNIVKY [BTN–JAK2, biotinylated control peptide derived from the αC helix–β4 loop of the JAK2 kinase, same TAT-miniPEG fragment, reference compound]” as the molecule, how does the “co-immunoprecipitation of HSP90 with biotinylated peptide” value (HSP90 [3]) read?
A: Its value is “did not coimmunoprecipitate BRAF, CDC37, or HSP90 under the same conditions”.

Q: What about the “co-immunoprecipitation of CDC37 with biotinylated peptide” value (CDC37) of the same molecule?
A: The value was “did not coimmunoprecipitate BRAF, CDC37, or HSP90 under the same conditions”.

Q: And the “co-immunoprecipitation of BRAF with biotinylated peptide” value (BRAF)?
A: The value was “did not coimmunoprecipitate BRAF, CDC37, or HSP90 under the same conditions”.

Q: And the “protein degradation and pERK levels with control peptide” value (MAPK proteins / pERK)?
A: The value was “did not induce protein degradation or reduce pERK levels”.

Q: What does the source list for “Biotin-GRKKRRQRRRPQ-miniPEG-TRHVNILxFM [BTN–braftide]”?
A: co-immunoprecipitation of HSP90 with biotinylated peptide (HSP90 [3]): Neither AKT1 nor HSP90 was pulled down in this assay; co-immunoprecipitation of CDC37 with biotinylated peptide (CDC37): coimmunoprecipitated CDC37, BRAF, and endogenous CRAF; co-immunoprecipitation of BRAF with biotinylated peptide (BRAF): coimmunoprecipitated CDC37, BRAF, and endogenous CRAF; co-immunoprecipitation of AKT1 with biotinylated peptide (AKT1): Neither AKT1 nor HSP90 was pulled down in this assay; co-immunoprecipitation of endogenous CRAF with biotinylated peptide (CRAF): coimmunoprecipitated CDC37, BRAF, and endogenous CRAF

Q: With “GRKKRRQRRRPQ-miniPEG-SLQHDNIVKY [TAT–JAK2, negative control peptide derived from the αC helix–β4 loop of the JAK2 kinase, reference compound]” as the molecule, how does the “MAPK proteins with control peptide” value ([1]; HCT116, 4 h, Fig. S2A) read?
A: Its value is “MAPK proteins are unaffected by control peptide”.

Q: Which “protein degradation of BRAF, CRAF, MEK, and ERK” value ([1]; HCT116, braftide^R2H, 4 h, immunoblot) does the source give for “GRKKRRQRRRPQ-miniPEG-THHVNILLFM [R/H peptide]” here?
A: The value was “failed to induce protein degradation of BRAF, CRAF, MEK, and ERK”.

Q: What about the “impact on MAPK signaling” value ([1]; HCT116, braftide^R2H, 4 h, pMEK and pERK immunoblot) of the same molecule?
A: Its value is “had no impact on MAPK signaling in HCT116 cells”.

B1: CDC37-myc-FLAG, Q16543 H20A; N22A; I23A (protein)
chain: MVDYSVWDHIEVSDDEDETAPAADTASLFRWRHQARVERMEQFQKEKEELDRGCRECKRKVAECQRKLKELEVAEGGKAELERLQAEAQQLRKEERSWEQKLEEMRKKEKSMPWNVDTLSKDGFSKSMVNTKPEKTEEDSEEVREQKHKTFVEKYEKQIKHFGMLRRWDDSQKYLSDNVHLVCEETANYLVIWCIDLEVEEKCALMEQVAHQTIVMQFILELAKSLKVDPRACFRQFFTKIKTADRQYMEGFNDELEAFKERVRGRAKLRIEKAMKEYEEEERKKRLGPGGLDPVEVYESLPEELQKCFDVKDVQMLQDAISKMDPTDAKYHMQRCIDSGLWVPNSKASEAKEGEEAGPGDPLLEAVPKTGDEKDVSV
Q: Which ratio to parent ([4]; HEK293 cells coexpressing BRAF-V5) does the source give for B1 here?
A: The ratio to parent was 1.01.

Q: And the ratio to parent ([4]; HEK293 cells coexpressing CRAF-HA)?
A: Its ratio to parent is 0.91.
